# Reference: US20070218504A1, “HUMAN LEPTIN-DERIVED POLYPEPTIDES AND USES THEREOF” (UNIVERSITY OF PITTSBURGH, priority 2006, published 2007)
# How the values were obtained:
# Type in all cases: in vivo, mouse
# [1] = system: tyrosine phosphorylation of STAT3 in the hypothalamic tissues; experiment: Tyrosine phosphorylation of STAT3 in hypothalamic tissues after i.c.v. injection (Western blot)
# Protocol: The hypothalamic tissues were surgically dissected right after sacrificing the mice. A portion of each tissue was extracted for protein in a protein lysis buffer. The activation of STAT3 was evaluated using Western blot assays with an antibody against phospho-tyrosine-STAT3 as described above (Cell Signaling, Beverly, Mass.). The membrane was striped and applied with an antibody against STAT3 to evaluate the overall level of STAT3 (Cell Signaling, Beverly, Mass.).
# To determine whether the interaction between human CRP and leptin dampens the cellular actions of leptin, an assessment was made of the ability of leptin to stimulate tyrosine phosphorylation of STAT3 in the hypothalamic tissues. As described above, human CRP at 2.3 μg/injection or PBS was pre-injected via i.c.v., followed by an injection of human leptin or mouse leptin, each at 100 ng/injection. Subsequently, the hypothalamic tissues were dissected and immediately placed into liquid nitrogen for a rapid freezing. A portion of the frozen tissue was homogenized in a protein lysis buffer for the extraction of proteins. The protein extract was then subjected to Western blot assay as described above.
# ob/ob mice [2] = experiment: Subcutaneous micro-osmotic pump infusion of human CRP and human leptin in ob/ob mice; conditions: for effect of CRP alone on food intake and body weight: CRP without leptin
# Protocol: Micro-osmotic pumps (#1007D, DURECT, Cupertino, Calif.) were subcutaneously implanted into ob/ob or wild-type mice according to the instructions of the manufacturer. The osmotic pumps were pre-filled with saline, CRP, leptin or leptin plus CRP. Food intake (24-hour), body weight, and body temperature were monitored daily post-surgery. Blood glucose concentrations were measured using tail-vein blood samples using a Precision Plus® glucose meter, product of Medisense (Abbot Park, Ill.).
# Human- and mouse-leptin concentrations were measured using ELISA kits from CHEMICON (Temecular, Calif.) and R&D Systems (Minneapolis, Minn.), respectively, accordingly to the instructions of the manufacturers. Serum mouse insulin and human CRP were determined with ELISA kits from LINCO Research (St. Charles, Mo.) and HELICA (Fullerton, Calif.), respectively. Serum- and tissue-triglycerides were determined with the protocols described previously (19).
# Various amounts of human CRP, either alone or with human leptin, were administered via micro-osmotic pumps implanted s.c. into 8-week old ob/ob mice.
# The above in vivo data were harvested from mice experiencing infusions of a mixture of CRP and leptin stored in a single mini-osmotic pump. Human CRP and leptin were also infused in separate osmotic pumps. […] Also compared to infusion from a single pump, detectable effects of human CRP on leptin were realized later, likely due to the time required to achieve diffusion and binding equilibrium.
# ob/ob mice [3] = experiment: Intracerebralventricular (i.c.v.) injection of human CRP and leptin in ob/ob mice, food intake and body weight
# Protocol: Male C57BL/6J ob/ob mice used in this study were obtained from the Jackson Laboratory, Bar Harbor. Mice (7-8 weeks of age) were fed standard chow and water ad libitum, housed in individual cages under controlled temperature at 22° C. and a 12-hour light-dark cycle with light from 0700 to 1900 h. Food intake and body weight were measured daily throughout the study. All experimental procedures were performed according to protocols approved by the Institutional Animal Care and Use Committee at the University of Pittsburgh. Cannulas were surgically implanted into the lateral ventricles of male ob/ob mice. Specifically, the mice were intraperitoneally anesthetized with 250 mg/Kg Avertin (Sigma-Aldrich). A plastic cannula was inserted into lateral cerebral ventricle: −0.7 mm relative to bregma, 1.3 mm lateral of midline, and 2 mm down to the calvarium. The exteriorized cannula was secured on the skull with original Super Glue. To prevent the cannula from becoming blocked by blood clots, a 28-gauge stainless syringe pinhead was inserted into each cannula. The animals were allowed to recover for 1 week after surgery until the food-intake reaches at least 90% of the pre-operative level. All agents were injected slowly with a volume of 1 μl using a 5 μl syringe (Hamilton, Reno, Nev.). For instance, human CRP was injected at a lower concentration of 1.2 μg per animal and a higher concentration of 2.3 μg per animal into the lateral ventricles. The i.c.v injection of human CRP was followed 24 hours later by injection of human leptin at a sub-maximal dose of 100 ng/animal. In a parallel experiment, human leptin was also injected via i.c.v. following a pre-injection of PBS. In each injection scheme, food was returned to the animals 1 hour after the injection, and the amount of food-intake and body weight were measured 24 hours later. All paired comparisons were subject to a two-tailed Student t-test with P<0.05 considered statistically significant. Additionally, human leptin was injected via i.c.v. for an extended period of two days subsequent to a pre-injection of human CRP with a dosage of 2.3 μg/injection. In a parallel experimental scheme, daily injection of human leptin was performed for two consecutive days subsequent to a pre-injection of PBS.
# [4] = human leptin 100 ng/animal i.c.v. after PBS pre-injection, 24 hours
substance,measurement,setting,value
"human CRP: human C-reactive protein, purified preparation from a commercial source",effect of CRP pre-injection on human leptin-induced STAT3 activation,[1]; human CRP 2.3 μg/injection,drastically diminished
same,effect of CRP pre-injection on mouse leptin-induced STAT3 activation,[1]; human CRP 2.3 μg/injection,did not block
same,"effect of human CRP on physiological actions of human leptin, separate osmotic pumps","ob/ob mice [2]; food intake, body weight, blood glucose, serum insulin, matched serum CRP",attenuate the physiological actions of human leptin
same,"effect of co-infused human CRP on leptin-induced reduction of food intake and body weight, low dosage","ob/ob mice [2]; human CRP 10 μg/day with human leptin, single pump",only partially attenuated
same,effect on increase of rectal temperature induced by leptin,ob/ob mice [2]; human CRP 40 μg/day,completely blocked
same,"effect of co-infused human CRP on leptin actions to restrain appetite and induce weight loss, high dosage","ob/ob mice [2]; human CRP 40 μg/day with human leptin, single pump",completely block
same,activation of STAT3 in hypothalamic tissues on co-infusion of CRP with leptin,ob/ob mice [2]; ob/ob mice,inhibited
same,effect of CRP alone on food intake and body weight,ob/ob mice [2]; ob/ob mice,did not affect food intake or body weight
same,effect of CRP alone on food intake and body weight,"ob/ob mice [2]; ob/ob mice, listed as CRP",does not influence food intake and body weight
same,effect of co-infused human CRP on leptin's alleviation of diabetes,"ob/ob mice [2]; ob/ob mice, co-infusion with leptin",reverted these effects
same,"effect of CRP pre-injection on satiety and weight reducing effects of human leptin, 1.2 μg",ob/ob mice [3]; human CRP 1.2 μg i.c.v. 24 hours before leptin,partially blunted
same,effect of CRP pre-injection on first injection of human leptin,ob/ob mice [3]; human CRP 2.3 μg/injection,completely blunted
same,effect of CRP pre-injection on second injection of human leptin,ob/ob mice [3]; human CRP 2.3 μg/injection,at least partially blocked
same,"effect of CRP pre-injection on satiety and weight reducing effects of human leptin, 2.3 μg",ob/ob mice [3]; human CRP 2.3 μg/μl i.c.v. 24 hours before leptin,completely blocked
same,food consumed after CRP alone compared to PBS alone,"ob/ob mice [3]; i.c.v., ob/ob mice",essentially the same amount of food
human leptin: human recombinant leptin,level of phosph-STAT3 in hypothalamic tissues after leptin,[1]; human leptin 100 ng/injection following PBS,sharp increase
same,total human leptin concentrations in the sera,"ob/ob mice [2]; all groups infused with leptin (leptin only or leptin plus CRP), separate osmotic pumps",15 to 20 ng/mL
same,"effect of leptin on diabetes (blood glucose, plasma insulin, serum- and hepatic triglyceride)",ob/ob mice [2]; ob/ob mice,alleviated diabetes
same,effect of human leptin on food-intake and body weight,"ob/ob mice [2]; ob/ob mice, 0.3 mg/kg/day s.c. infusion, 6 days",expected reduction in food-intake and body weight
same,effect of daily injection of human leptin for two days on food intake and body weight,ob/ob mice [3]; after PBS pre-injection,gradual decreases in food intake and body weight
same,decrease in food-intake,ob/ob mice [3]; [4],40.2%
same,reduction of body weight,ob/ob mice [3]; [4],2.17%
